The values that follow come from patent US20250025523A1, “COMPOSITION FOR PREVENTING OR TREATING MUSCLE DISEASE COMPRISING SARGASSUM SERRATIFOLIUM EXTRACT” (PUKYONG NATIONAL UNIVERSITY INDUSTRY- UNIVERSITY …, priority 2021, published 2025).

A short description of this data set: Body weight change in dexamethasone muscle atrophy mouse model. Conditions: DEX group: dexamethasone 10 mg/kg/day i.p. 4 weeks, olive oil orally; at sacrifice. The class given is in vivo, C57BL/6 mice. The procedure:
Specifically, three-week-old male C57BL/6 mice were provided with free access to water and food and were acclimated under conditions of 23±2° C., relative humidity of 50±5%, and a 12-hour light/dark cycle. […] In the untreated group, an equivalent volume of saline was administered intraperitoneally. Body weight and food intake were evaluated daily. The experiment was conducted with the approval of the Pukyong National University Animal Care and Use Committee, in accordance with Pukyong National University's animal experiment ethics regulations.

For `C[C@@H]1C[C@H]2[C@@H]3CCC4=CC(=O)C=C[C@]4(C)[C@@]3(F)[C@@H](O)C[C@]2(C)[C@@]1(O)C(=O)CO` [DEX, dexamethasone], the “Body weight (g) Sacrifice [B]” value was 27.9 ± 3.25 g.
